Assay results: US20260022143A1, “Cyclic Peptide Inhibitors of IL-23” (JANSSEN PHARMACEUTICA NV, priority 2022, published 2026)
Starred links: 1 amine or outer side, 2 acyl side, 3 side chain; linkers in the order of their positions; H or OH if unused. Positions of bridges follow the written chain, without caps; N, C: chain ends. Non-standard residues stand in square brackets, D forms with d. Residues, ends and D or L forms follow the SMILES beside them. Groups on a side chain read outwards from the residue. *: point of attachment. Me3N+(CH2)2O(CH2)2O(CH2)2CO = C[N+](C)(C)CCOCCOCCC(=O)*; CH2CH2OCH2CH2OCH2CH2NMe3+ = C[N+](C)(C)CCOCCOCC*; Phe(4-N3) = [N-]=[N+]=Nc1ccc(C[C@H](N)C(=O)O)cc1; Trp(7-Me) = Cc1cccc2c(C[C@H](N)C(=O)O)c[nH]c12; X20 = C[N+](C)(C)CC[C@H](N[*:1])C(=O)[*:2]; X15 = CC(=O)N(C)C[C@H](N[*:1])C(=O)[*:2]; γGlu = O=C(O)[C@H](CCC(=O)[*:2])N[*:1]; 2Nal = N[C@@H](Cc1ccc2ccccc2c1)C(=O)O; 3Pal = N[C@@H](Cc1cccnc1)C(=O)O; Lys(Me) = CNCCCC[C@H](N)C(=O)O; Agb = N=C(N)NCC[C@H](N)C(=O)O; NMeK = CN[C@@H](CCCCN)C(=O)O; Pen = CC(C)(S)[C@H](N)C(=O)O; Lauroyl = CCCCCCCCCCCC(=O)*; X11 = N=C(N)NCCOCCOCCC(=O)*; Thp = NC1(C(=O)O)CCOCC1; X3 = C[N+](C)(C)CCCCC*; AEEA = NCCOCCOCC(=O)O; Sar = CNCC(=O)O

How the values were obtained:
[1] = target: T1, IL-23R (Homo sapiens, UniProt Q5VWK5); test: IL23R Reporter Assay; assay type: cell-based; settings: HEK293 cells containing IL-23R, IL-12RP1 and STAT-inducible firefly luciferase reporter; 10 ng/mL IL-23 (EC90); 5 h at 37° C.; read-out: IL23R Reporter Assay
T1 construct: host or cells: HEK293
T1 sequence (Q5VWK5 24-629): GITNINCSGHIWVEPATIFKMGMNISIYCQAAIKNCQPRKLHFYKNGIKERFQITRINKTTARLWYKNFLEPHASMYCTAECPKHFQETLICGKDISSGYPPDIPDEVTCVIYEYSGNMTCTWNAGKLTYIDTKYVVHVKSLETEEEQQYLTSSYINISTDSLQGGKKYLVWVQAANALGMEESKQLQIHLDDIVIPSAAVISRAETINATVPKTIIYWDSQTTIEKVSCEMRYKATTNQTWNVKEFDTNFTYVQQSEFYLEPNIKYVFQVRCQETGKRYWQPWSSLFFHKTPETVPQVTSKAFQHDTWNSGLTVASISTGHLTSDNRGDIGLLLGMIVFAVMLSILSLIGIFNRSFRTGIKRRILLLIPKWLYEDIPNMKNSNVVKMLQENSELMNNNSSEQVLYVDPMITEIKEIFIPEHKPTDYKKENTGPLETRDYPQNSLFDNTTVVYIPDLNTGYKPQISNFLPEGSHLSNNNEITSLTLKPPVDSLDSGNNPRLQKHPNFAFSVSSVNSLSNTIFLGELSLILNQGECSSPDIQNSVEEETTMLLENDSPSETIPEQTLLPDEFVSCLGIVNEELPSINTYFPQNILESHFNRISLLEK

[2] = Exposed Polar Surface Area (EPSA); assay type: physicochemical; settings: SFC on Chirex 3014 column; sample 1 mM DMSO stock; read-out: EPSA
Summary of the method: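 SFC retention on a Chirex 3014 (S)-valine/(R)-1-(α-naphthyl)ethylamine column, 35 °C, CO2 with MeOH (20 mM ammonium formate) gradient 5–60% at 20%/min, 14 MPa outlet. Retention times converted to EPSA (Å^2) via linear calibration with 8 standards; samples from 1 mM DMSO stock, run in duplicate.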

Row | Compound | IC50 [1] [nM] | EPSA [2] [A^2]
1 | CC(=O)NCCCC[C@@H]1NC(=O)[C@H](Cc2c[nH]c3c(C)cccc23)NC(=O)[C@H]([C@@H](C)O)NC(=O)[C@H](CC(=O)N(C)C)NC(=O)[C@@H](NC(=O)CCOCCOCC[N+](C)(C)C)C(C)(C)SSC(C)(C)[C@@H](C(=O)N[C@@H](Cc2ccc(OCCCCC[N+](C)(C)C)cc2)C(=O)N[C@@H](Cc2ccc3ccccc3c2)C(=O)NC2(C(=O)N[C@@H](CN(C)C(C)=O)C(=O)N[C@@H](CC(N)=O)C(=O)N[C@@H](Cc3cccnc3)C(=O)N(C)CC(=O)N(C)C)CCOCC2)NC1=O [compound 415, cPEG3aCO-Pen(3)-N(N(Me)2)-T-7MeW-K(Ac)-Pen(3)-TMAPF-2Nal-THP-Dap(NMeAc)-N-3Pya-Sar-CON(Me)2] ({Me3N+(CH2)2O(CH2)2O(CH2)2CO}-[Pen]D(NMe2)T[Trp(7-Me)]K(Ac)[Pen]Y(X3)[2Nal][Thp][X15]N[3Pal][Sar]-NMe2; disulfide 1-6 (inferred)) | 4.4 | 148
2 | CC(=O)N(C)CCCC[C@@H]1NC(=O)[C@H](Cc2c[nH]c3c(C)cccc23)NC(=O)[C@H]([C@@H](C)O)NC(=O)[C@H](CC[N+](C)(C)C)NC(=O)[C@@H](NC(=O)CCOCCOCC[N+](C)(C)C)C(C)(C)SSC(C)(C)[C@@H](C(=O)N[C@@H](Cc2ccc(OCCOCCOCC[N+](C)(C)C)cc2)C(=O)N[C@@H](Cc2ccc3ccccc3c2)C(=O)NC2(C(=O)N[C@@H](CCCCN(C)C(C)=O)C(=O)N[C@@H](CC(N)=O)C(=O)N[C@@H](Cc3cccnc3)C(=O)N(C)CC(=O)N(C)C)CCOCC2)NC1=O [compound 416, cPEG3aCO-Pen(3)-Dab(Me)3-T-7MeW-K(NMeAc)-Pen(3)-APEG3F-2Nal-THP-K(NMeAc)-N-3Pya-Sar-CON(Me)2] ({Me3N+(CH2)2O(CH2)2O(CH2)2CO}-[Pen][X20]T[Trp(7-Me)][Lys(Me)](Ac)[Pen]Y(CH2CH2OCH2CH2OCH2CH2NMe3+)[2Nal][Thp][Lys(Me)](Ac)N[3Pal][Sar]-NMe2; disulfide 1-6) | 1.2 | 166
3 | CC(=O)NCCCC[C@@H]1NC(=O)[C@H](Cc2c[nH]c3c(C)cccc23)NC(=O)[C@H]([C@@H](C)O)NC(=O)[C@H](CC(N)=O)NC(=O)[C@@H](NC(=O)CCOCCOCC[N+](C)(C)C)C(C)(C)SSC(C)(C)[C@@H](C(=O)N[C@@H](Cc2ccc(N=[N+]=[N-])cc2)C(=O)N[C@@H](Cc2ccc3ccccc3c2)C(=O)NC2(C(=O)N[C@@H](CCCCNC(C)=O)C(=O)N[C@@H](CC(N)=O)C(=O)N[C@@H](Cc3cccnc3)C(=O)N(C)CC(N)=O)CCOCC2)NC1=O [compound 418, cPEG3aCO-Pen(3)-N-T-7MeW-K(Ac)-Pen(3)-F(4N3)-2Nal-THP-K(Ac)-N-3Pya-Sar-CONH2] ({Me3N+(CH2)2O(CH2)2O(CH2)2CO}-[Pen]NT[Trp(7-Me)]K(Ac)[Pen][Phe(4-N3)][2Nal][Thp]K(Ac)N[3Pal][Sar]-NH2; disulfide 1-6) | 1.2 | 166
4 | CC(=O)N(C)CCCC[C@@H]1NC(=O)[C@H](Cc2c[nH]c3c(C)cccc23)NC(=O)[C@H]([C@@H](C)O)NC(=O)[C@H](CC(=O)N(C)C)NC(=O)[C@@H](NC(=O)CCOCCOCC[N+](C)(C)C)C(C)(C)SSC(C)(C)[C@@H](C(=O)N[C@@H](Cc2ccc(OCCOCCOCC[N+](C)(C)C)cc2)C(=O)N[C@@H](Cc2ccc3ccccc3c2)C(=O)NC2(C(=O)N[C@@H](CN(C)C(C)=O)C(=O)N[C@@H](CC(N)=O)C(=O)N[C@@H](Cc3cccnc3)C(=O)N(C)CC(=O)N(C)C)CCOCC2)NC1=O [compound 419, cPEG3aCO-Pen(3)-N(N(Me)2)-T-7MeW-K(NMeAc)-Pen(3)-APEG3F-2Nal-THP-Dap(NMeAc)-N-3Pya-Sar-CON(Me)2] ({Me3N+(CH2)2O(CH2)2O(CH2)2CO}-[Pen]D(NMe2)T[Trp(7-Me)][Lys(Me)](Ac)[Pen]Y(CH2CH2OCH2CH2OCH2CH2NMe3+)[2Nal][Thp][X15]N[3Pal][Sar]-NMe2; disulfide 1-6) | 3 | 156

The remaining lines, values ahead:

Row | IC50 [1] [nM] | EPSA [2] [A^2] | Compound
5 | 31 | 196 | CCCCCCCCCCCC(=O)N[C@@H](CCC(=O)NCCOCCOCC(=O)NCCOCCOCC(=O)NCCOCCOCC(=O)NCCOCCOCC(=O)NCCCC[C@@H](NC(=O)CCOCCOCC[N+](C)(C)C)C(=O)N[C@@H]1C(=O)N[C@@H](CC(=O)N(C)C)C(=O)N[C@@H]([C@@H](C)O)C(=O)N[C@@H](Cc2c[nH]c3c(C)cccc23)C(=O)N[C@@H](CCCCNC(C)=O)C(=O)N[C@H](C(=O)N[C@@H](Cc2ccc(OCCCCC[N+](C)(C)C)cc2)C(=O)N[C@@H](Cc2ccc3ccccc3c2)C(=O)NC2(C(=O)N[C@@H](CCCCN(C)C(C)=O)C(=O)N[C@@H](CC(N)=O)C(=O)N[C@@H](Cc3cccnc3)C(=O)N(C)[C@@H](CCCCNC(=O)COCCOCCNC(=O)COCCOCCNC(=O)COCCOCCNC(=O)COCCOCCNC(=O)CC[C@H](NC(=O)CCCCCCCCCCC)C(=O)O)C(N)=O)CCOCC2)C(C)(C)SSC1(C)C)C(=O)O [compound 404, cPEG3aCO-k(PEG2PEG2PEG2PEG2gEC12)-Pen(3)-N(N(Me)2)-T-7MeW-K(Ac)-Pen(3)-TMAPF-2Nal-THP-K(NMeac)-N-3Pya-NMeK(PEG2PEG2PEG2PEG2gEC12)-CONH2] ({Me3N+(CH2)2O(CH2)2O(CH2)2CO}-[dK]([AEEA-AEEA-AEEA-AEEA-γGlu-Lauroyl])[Pen]D(NMe2)T[Trp(7-Me)]K(Ac)[Pen]Y(X3)[2Nal][Thp][Lys(Me)](Ac)N[3Pal][NMeK]([AEEA-AEEA-AEEA-AEEA-γGlu-Lauroyl])-NH2; disulfide 2-7)
6 | 2.1 | 150 | CC(=O)N(C)CCCC[C@@H]1NC(=O)[C@H](Cc2c[nH]c3c(C)cccc23)NC(=O)[C@H]([C@@H](C)O)NC(=O)[C@H](CC(=O)N(C)C)NC(=O)[C@@H](NC(=O)CCOCCOCCNC(=N)N)C(C)(C)SSC(C)(C)[C@@H](C(=O)N[C@@H](Cc2ccc(OCCOCCOCC[N+](C)(C)C)cc2)C(=O)N[C@@H](Cc2ccc3ccccc3c2)C(=O)NC2(C(=O)N[C@@H](CCCCN(C)C(C)=O)C(=O)N[C@@H](CC(N)=O)C(=O)N[C@@H](Cc3cccnc3)C(=O)N(C)CC(=O)N(C)C)CCOCC2)NC1=O [compound 406, cPEG3gCO-Pen(3)-N(N(Me)2)-T-7MeW-K(NMeAc)-Pen(3)-APEG3F-2Nal-THP-K(NMeAc)-N-3Pya-Sar-CON(Me)2] (X11-[Pen]D(NMe2)T[Trp(7-Me)][Lys(Me)](Ac)[Pen]Y(CH2CH2OCH2CH2OCH2CH2NMe3+)[2Nal][Thp][Lys(Me)](Ac)N[3Pal][Sar]-NMe2; disulfide 1-6)
7 | 47 | 198 | CCCCCCCCCCCC(=O)N[C@@H](CCC(=O)NCCOCCOCC(=O)NCCOCCOCC(=O)NCCOCCOCC(=O)NCCOCCOCC(=O)NCCCC[C@H](NC(=O)COCCOCCNC(=O)COCCOCCNC(=O)COCCOCCNC(=O)COCCOCCNC(=O)CC[C@H](NC(=O)CCCCCCCCCCC)C(=O)O)C(=O)NCCOCCOCC(=O)NCCOCCOCC(=O)NCCCC[C@@H](C(N)=O)N(C)C(=O)[C@H](Cc1cccnc1)NC(=O)[C@H](CC(N)=O)NC(=O)[C@H](CCCCN(C)C(C)=O)NC(=O)C1(NC(=O)[C@H](Cc2ccc3ccccc3c2)NC(=O)[C@H](Cc2ccc(OCCCCC[N+](C)(C)C)cc2)NC(=O)[C@H]2NC(=O)[C@H](CCCCNC(C)=O)NC(=O)[C@H](Cc3c[nH]c4c(C)cccc34)NC(=O)[C@H]([C@@H](C)O)NC(=O)[C@H](CC(=O)N(C)C)NC(=O)[C@@H](NC(=O)CCOCCOCC[N+](C)(C)C)C(C)(C)SSC2(C)C)CCOCC1)C(=O)O [compound 409, cPEG3aCO-Pen(3)-N(N(Me)2)-T-7MeW-K(Ac)-Pen(3)-TMAPF-2Nal-THP-K(NMeac)-N-3Pya-NMeK(PEG2PEG2K(PEG2PEG2PEG2PEG2gEC12)2)-CONH2]
8 | 2.1 | 155 | CC(=O)N(C)CCCC[C@@H]1NC(=O)[C@H](Cc2c[nH]c3c(C)cccc23)NC(=O)[C@H]([C@@H](C)O)NC(=O)[C@H](CCNC(=N)N)NC(=O)[C@@H](NC(=O)CCOCCOCC[N+](C)(C)C)C(C)(C)SSC(C)(C)[C@@H](C(=O)N[C@@H](Cc2ccc(OCCOCCOCC[N+](C)(C)C)cc2)C(=O)N[C@@H](Cc2ccc3ccccc3c2)C(=O)NC2(C(=O)N[C@@H](CCCCN(C)C(C)=O)C(=O)N[C@@H](CC(N)=O)C(=O)N[C@@H](Cc3cccnc3)C(=O)N(C)CC(=O)N(C)C)CCOCC2)NC1=O [compound 411, cPEG3aCO-Pen(3)-Gab-T-7MeW-K(NMeAc)-Pen(3)-APEG3F-2Nal-THP-K(NMeAc)-N-3Pya-Sar-CON(Me)2] ({Me3N+(CH2)2O(CH2)2O(CH2)2CO}-[Pen][Agb]T[Trp(7-Me)][Lys(Me)](Ac)[Pen]Y(CH2CH2OCH2CH2OCH2CH2NMe3+)[2Nal][Thp][Lys(Me)](Ac)N[3Pal][Sar]-NMe2; disulfide 1-6 (inferred))
9 | 1.4 | 167 | CC(=O)NCCCC[C@@H]1NC(=O)[C@H](Cc2c[nH]c3c(C)cccc23)NC(=O)[C@H]([C@@H](C)O)NC(=O)[C@H](CC(N)=O)NC(=O)[C@@H](NC(C)=O)C(C)(C)SSC(C)(C)[C@@H](C(=O)N[C@@H](Cc2ccc(N=[N+]=[N-])cc2)C(=O)N[C@@H](Cc2ccc3ccccc3c2)C(=O)NC2(C(=O)N[C@@H](CCCCNC(C)=O)C(=O)N[C@@H](CC(N)=O)C(=O)N[C@@H](Cc3cccnc3)C(=O)N(C)CC(N)=O)CCOCC2)NC1=O [compound 417] (Ac-[Pen]NT[Trp(7-Me)]K(Ac)[Pen][Phe(4-N3)][2Nal][Thp]K(Ac)N[3Pal][Sar]-NH2; disulfide 1-6 (inferred))
